From patent US20230167127A1, “COMPOUNDS AND THEIR USE IN THE TREATMENT OF BACTERIAL INFECTION” (Hoffmann-La Roche Inc., priority 2020, published 2023) come the findings set out here.

In this experiment the test system is Escherichia coli ATCC 25922. As to the kind of experiment: 50% growth inhibitory concentration (IC50) determination, Iso-Sensitest broth dilution. Type of experiment: cell-based. The conditions noted are these: Escherichia coli, ATCC25922, 16 h, strain Escherichia coli ATCC 25922; 10-point broth dilution, optical density at 600 nm over 16 h; read-out: Escherichia coli growth inhibition IC50. In short, it runs like this: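 Growth was tracked as optical density at 600 nm every 20 minutes for 16 h at 35±2° C. Compounds from DMSO stocks were serially diluted twofold over 10 points (e.g. 50–0.097 μM final) in Iso-Sensitest broth. Inhibition computed in log-phase growth to give IC50.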
On the technique in general: Dilution methods test growth across graded concentrations, often in twofold steps.
A word on the IC50: it is the concentration that inhibits the measured activity by half. Regarding `CC(N)COc1ccc2c(c1C#N)CC(CNCCC1CN(c3ccc4c(n3)NC(=O)CO4)C(=O)O1)C2` (stereo not drawn) [Example 134, 5-(2-aminopropoxy)-2-[[2-[2-oxo-3-(3-oxo-4H-pyrido[3,2-b][1,4]oxazin-6-yl)-1,3-oxazolidin-5-yl]ethylamino]methyl]-2,3-dihydro-1H-indene-4-carbonitrile; formic acid], the IC50 was 114 nM.

Regarding `Cn1nnnc1COc1cc(C#N)c2c(c1)CC(CNCCC1CN(c3cnc4c(n3)NC(=O)CO4)C(=O)O1)C2` (stereo not drawn) [Example 391, 6-[(1-methyltetrazol-5-yl)methoxy]-2-[[2-[2-oxo-3-(3-oxo-4H-pyrazino[2,3-b][1,4]oxazin-6-yl)-1,3-oxazolidin-5-yl]ethylamino]methyl]-2,3-dihydro-1H-indene-4-carbonitrile], the 50% inhibitory concentration (IC50) is 258 nM.

For the compound `O=C1COc2ncc(N3CC(CCNCC4Cc5cc(OCCn6ccnc6)cc(F)c5C4)OC3=O)nc2N1` (stereo not drawn) [Example 332, 6-[5-[2-[[4-fluoro-6-(2-imidazol-1-ylethoxy)-2,3-dihydro-1H-inden-2-yl]methylamino]ethyl]-2-oxo-1,3-oxazolidin-3-yl]-4H-pyrazino[2,3-b][1,4]oxazin-3-one], the IC50 is 184 nM.

Turning to `O=C1COc2ccc(N3C[C@H](NC4CC(NC5Cc6cccc(F)c6C5)C4)CC3=O)nc2N1` (stereo partly drawn) [Example 23, 6-[(4R)-4-[[3-[(4-fluoro-2,3-dihydro-1H-inden-2-yl)amino]cyclobutyl]amino]-2-oxopyrrolidin-1-yl]-4H-pyrido[3,2-b][1,4]oxazin-3-one; formic acid], the half-inhibitory concentration (IC50) was 2170 nM.

For `Nc1nnnn1CCOc1cc(F)c2c(c1)CC(CNCCC1CN(c3cnc4c(n3)NC(=O)CO4)C(=O)O1)C2` (stereo not drawn) [Example 294, 6-[5-[2-[[6-[2-(5-aminotetrazol-1-yl)ethoxy]-4-fluoro-2,3-dihydro-1H-inden-2-yl]methylamino]ethyl]-2-oxo-1,3-oxazolidin-3-yl]-4H-pyrazino[2,3-b][1,4]oxazin-3-one; formic acid], the IC50 turned out to be 727 nM.

In the case of `N#Cc1nccc2c1CC(CN[C@H]1C[C@@]3(CN(c4ccc5c(n4)NC(=O)CO5)C(=O)O3)C1)C2` (stereo partly drawn) [Example 104, 6-[[[2,4-trans-6-oxo-7-(3-oxo-4H-pyrido[3,2-b][1,4]oxazin-6-yl)-5-oxa-7-azaspiro[3.4]octan-2-yl]amino]methyl]-6.7-dihydro-5H-cyclopenta[c]pyridine-1-carbonitrile], the IC50 was found to be 99.4 nM.

On to `Cc1cc(OCC2(N)CC2)c(C)c2c1CC(CNCCC1CN(c3cnc4c(n3)NC(=O)CO4)C(=O)O1)C2` (stereo not drawn) [Example 253, 6-[5-[2-[[5-[(1-Aminocyclopropyl)methoxy]-4,7-dimethyl-2,3-dihydro-1H-inden-2-yl]methylamino]ethyl]-2-oxo-1,3-oxazolidin-3-yl]-4H-pyrazino[2,3-b][1,4]oxazin-3-one; formic acid], for which the IC50 is < 97.7 nM.

As to `Cc1ncc(F)c2c1CC(CNCCC1CN(c3ccc4c(n3)NC(=O)CO4)C(=O)O1)C2` (stereo not drawn) [Example 36, 6-[5-[2-[(4-fluoro-1-methyl-6,7-dihydro-5H-cyclopenta[c]pyridin-6-yl)methylamino]ethyl]-2-oxo-1,3-oxazolidin-3-yl]-4H-pyrido[3,2-b][1,4]oxazin-3-one], the IC50 is < 97.7 nM.

`CNC(=O)COc1cc(Cl)c2c(c1)C(N)C(CNCCC1CN(c3ccc4c(n3)NC(=O)CO4)C(=O)O1)C2` (racemic) [Example 400, N-methyl-2-[[rac-2,3-trans-3-amino-7-chloro-2-[[2-[2-oxo-3-(3-oxo-4H-pyrido[3,2-b][1,4]oxazin-6-yl)-1,3-oxazolidin-5-yl]ethylamino]methyl]-2,3-dihydro-1H-inden-5-yl]oxy]acetamide; formic acid]: the IC50 came to 365 nM.

On to `N#Cc1cccc2c1CC(N[C@H]1CC[C@H](C3CN(c4ccc5c(n4)NC(=O)CO5)C(=O)O3)CC1)C2` (stereo partly drawn) [Example 34, 2-[[trans-4-[2-oxo-3-(3-oxo-4H-pyrido[3,2-b][1,4]oxazin-6-yl)-1,3-oxazolidin-5-yl]cyclohexyl]amino]-2,3-dihydro-1H-indene-4-carbonitrile; formic acid], for which the IC50 was 1660 nM.

`COc1nc(C)c2c(c1F)CC(CNCCC1CN(c3cnc4c(n3)NC(=O)CO4)C(=O)O1)C2` (stereo not drawn) [Example 397, 6-[5-[2-[(4-fluoro-3-methoxy-1-methyl-6,7-dihydro-5H-cyclopenta[c]pyridin-6-yl)methylamino]ethyl]-2-oxo-1,3-oxazolidin-3-yl]-4H-pyrazino[2,3-b][1,4]oxazin-3-one]: the concentration for half-maximal inhibition (IC50) is < 97.7 nM.

For `Cc1nnc(C)c2c1CC(CNCCC1CN(c3ccc4c(n3)NC(=O)CS4)C(=O)O1)C2` (stereo not drawn) [Example 285, 5-[2-[(1,4-dimethyl-6,7-dihydro-5H-cyclopenta[d]pyridazin-6-yl)methylamino]ethyl]-3-(3-oxo-4H-pyrido[3,2-b][1,4]thiazin-6-yl)-1,3-oxazolidin-2-one], the IC50 is 925 nM.

On to `N#Cc1nccc2c1CC(NCCCC1CN(c3ccc4c(n3)NC(=O)CO4)C(=O)O1)C2` (stereo not drawn) [Example 95, 6-[3-[2-oxo-3-(3-oxo-4H-pyrido[3,2-b][1,4]oxazin-6-yl)-1,3-oxazolidin-5-yl]propylamino]-6,7-dihydro-5H-cyclopenta[c]pyridine-1-carbonitrile], for which the half-maximal inhibitory concentration (IC50) came to 232 nM.

Take `NCCOc1cc2c(c(Cl)n1)CC(CNCCC1CN(c3ccc4c(n3)NC(=O)CO4)C(=O)O1)C2` (stereo not drawn) [Example 126, 6-[5-[2-[[3-(2-aminoethoxy)-1-chloro-6,7-dihydro-5H-cyclopenta[c]pyridin-6-yl]methylamino]ethyl]-2-oxo-1,3-oxazolidin-3-yl]-4H-pyrido[3,2-b][1,4]oxazin-3-one]: the IC50 came to 260 nM.

For `N#Cc1cc(OCC2CNC2)cc2c1CC(CNCCC1CN(c3ccc4c(n3)NC(=O)CO4)C(=O)O1)C2` (stereo not drawn) [Example 191, 6-(azetidin-3-ylmethoxy)-2-[[2-[2-oxo-3-(3-oxo-4H-pyrido[3,2-b][1,4]oxazin-6-yl)-1,3-oxazolidin-5-yl]ethylamino]methyl]-2,3-dihydro-1H-indene-4-carbonitrile; 2,2,2-trifluoroacetic acid], the IC50 turned out to be 295 nM.

Turning to `Cc1nc(OCC2CNC(=O)C2)c(C)c2c1CC(CNCCC1CN(c3ccc4c(n3)NC(=O)CO4)C(=O)O1)C2` (stereo not drawn) [Example 102, 6-[5-[2-[[1,4-dimethyl-3-[(5-oxopyrrolidin-3-yl)methoxy]-6,7-dihydro-5H-cyclopenta[c]pyridin-6-yl]methylamino]ethyl]-2-oxo-1,3-oxazolidin-3-yl]-4H-pyrido[3,2-b][1,4]oxazin-3-one], the IC50 amounted to 871 nM.

As for `O=C1COc2ccc(N3C(=O)OC4CC(NCCC5Cc6cccc(Cl)c6C5)CCC43)nc2N1` (racemic) [Example 32, 6-[rac-3a,7a-trans-6,7a-cis-6-[2-(4-chloro-2,3-dihydro-1H-inden-2-yl)ethylamino]-2-oxo-3a,4,5,6,7,7a-hexahydro-1,3-benzoxazol-3-yl]-4H-pyrido[3.2-b][1,4]oxazin-3-one], the IC50 was 710 nM.

For the compound `N#Cc1nc(OCCN)cc2c1CC(CNCCC1CN(c3ccc4c(n3)NC(=O)CO4)C(=O)O1)C2` (stereo not drawn) [Example 127, 3-(2-aminoethoxy)-6-[[2-[2-oxo-3-(3-oxo-4H-pyrido[3,2-b][1,4]oxazin-6-yl)-1,3-oxazolidin-5-yl]ethylamino]methyl]-6,7-dihydro-5H-cyclopenta[c]pyridine-1-carbonitrile; formic acid], the IC50 came to 189 nM.
